Patent publication US12012412B2, “Solid forms of pyrazolo[3,4-d]pyrimidine compounds” (Pfizer Inc., priority 2021, dated 2024)
In brackets after ≈: the same amount, converted by molar mass.

Legend:
Type in all cases: physicochemical
[1] = True density of Solid Form A
[2] = Gravimetric analysis (TGA/EGA) of Solid Form A; conditions: heated at 10° C./minute
Procedure: 10.9587 mg of Solid Form A was placed in a platinum crucible. This was analysed on a TA Instruments Discovery ThermoGravimetric Analyser, using a method that heated the sample from 25° C. to 300° C. at 10° C./minute with a nitrogen purge gas; alternatively, approximately 5-10 mg of material was weighed into an open aluminum pan and loaded into a simultaneous thermogravimetric/differential thermal analyzer (TG/DTA) and held at room temperature. The sample was then heated at a rate of 10° C./min from 20° C. to 400° C. during which time the change in sample weight was recorded along with any differential thermal events (DTA). Nitrogen was used as the purge gas, at a flow rate of 300 cm^3/min.

[3] = Water sorption (dynamic vapor sorption) of Solid Form A; conditions: 25° C.
Procedure: Solid Form A is non-hygroscopic, absorbing less than 0.05% water at 90% RH, 25° C. See FIG. 7 for the isotherm plot.

[4] = Aqueous solubility of Solid Form A in biologically relevant pH conditions at 25° C.; conditions: thermodynamic from solid
[5] = Solubility of Solid Form A and amorphous Compound X in various solvents at room temperature
[6] = Organic solubility: gravimetric (TGA) solubility at 25° C.
[7] = Particle size of batches of Solid Form A
Excerpt: Primary particles from below 100 μm to around 500 μm in size, with soft agglomerates up to several millimeters, were observed. The D[4,3] of this material was 195 μm. This material was subsequently milled, to give far fewer large particles and an overall much smaller average primary particle size, giving a D[4,3] of 49.5 μm. See Table 8 for a comparison of particle size properties of various batches.

[8] = Chemical and physical stability of Solid Form A (real-time and accelerated storage); conditions: for Time through which chemically and physically stable: unmilled, bulk packaging
[9] = Physical stability of Solid Form A to milling
Procedure: Samples of Solid Form A were milled to reduce particle size.
Milled samples of Solid Form A were remilled, and exposed at 40° C./75% RH.

[10] = milled samples remilled, exposed at 40° C./75% RH

- True Density (crystal structure) ([1]; from crystal structure): 1.279 Mg/m^3
- True Density (measured) ([1]; measured): 1.29 Mg/m^3
- Water Content, Desorption ([3]; 0 % RH): 0 % w/w
- Water Content, Sorption ([3]; 0 % RH): 0 % w/w
- Water Content, Desorption ([3]; 10 % RH): 0.01 % w/w
- Water Content, Sorption ([3]; 10 % RH): 0.01 % w/w
- Water Content, Desorption ([3]; 20 % RH): 0.01 % w/w
- Water Content, Sorption ([3]; 20 % RH): 0.01 % w/w
- Hygroscopicity [3]: non-hygroscopic
- Water Content, Desorption ([3]; 30 % RH): 0.01 % w/w
- Water Content, Sorption ([3]; 30 % RH): 0.01 % w/w
- Water Content, Desorption ([3]; 40 % RH): 0.02 % w/w
- Water Content, Sorption ([3]; 40 % RH): 0.02 % w/w
- Water Content, Desorption ([3]; 50 % RH): 0.02 % w/w
- Water Content, Sorption ([3]; 50 % RH): 0.02 % w/w
- Water Content, Desorption ([3]; 60 % RH): 0.02 % w/w
- Water Content, Sorption ([3]; 60 % RH): 0.02 % w/w
- Water Content, Desorption ([3]; 70 % RH): 0.03 % w/w
- Water Content, Sorption ([3]; 70 % RH): 0.03 % w/w
- Water Content, Desorption ([3]; 80 % RH): 0.03 % w/w
- Water Content, Sorption ([3]; 80 % RH): 0.03 % w/w
- Water absorbed ([3]; 90% RH): less than 0.05%
- solubility ([4]; aqueous buffer, 100 mM Citrate buffer, pH 4.5, 25° C.): > 55.9 mg/mL
- solubility ([4]; aqueous buffer, 100 mM Citrate buffer, pH 6.0, 25° C.): > 52.2 mg/mL
- solubility ([4]; aqueous buffer, 100 mM Phosphate buffer, pH 6.5, 25° C.): > 53.3 mg/mL
- solubility ([4]; aqueous buffer, 100 mM Succinate buffer, pH 4.0, 25° C.): > 58.6 mg/mL
- solubility ([4]; aqueous buffer, 100 mM Succinate buffer, pH 5.5, 25° C.): > 52.8 mg/mL
- solubility ([4]; aqueous buffer, Phosphate buffered saline, pH 7.0, 25° C.): 42.1 mg/mL (≈ 106 mM)
- solubility ([4]; aqueous buffer, Phosphate buffered saline, pH 7.4, 25° C.): 27.6 mg/mL (≈ 69.8 mM)
- solubility ([4]; simulated gastric fluid, 0.01M HCl, pH 1.7, 25° C.): > 56.6 mg/mL
- Solubility (mg/ml) ([5]; 1,2-Xylene): >65.4 mg/mL
- Solubility (mmol) ([5]; 1,2-Xylene): >165 mmol
- Solubility (mg/ml) ([5]; Acetone): 49.4 mg/mL (≈ 125 mM)
- Solubility (mmol) ([5]; Acetone): 125 mmol
- Solubility (mmol) ([5]; Chloroform): >145 mmol
- Solubility (mmol) ([5]; Dioxane): >117 mmol
- Solubility (mg/ml) ([5]; EtOAc): 44.7 mg/mL (≈ 113 mM)
- Solubility (mmol) ([5]; EtOAc): 113 mmol
- Solubility (mmol) ([5]; EtOH): 160 mmol
- Solubility (mmol) ([5]; Glyme (1,2-Dimethoxyethane)): >159 mmol
- Solubility (mmol) ([5]; H2O (Water)): 89 mmol
- Solubility (mmol) ([5]; H2O-EtOH (Water/EtOH)): >75 mmol
- Solubility (mg/ml) ([5]; H2O-MeCN (Water/MeCN)): >27 mg/mL
- Solubility (mmol) ([5]; H2O-MeCN (Water/MeCN)): >68 mmol
- Solubility (mmol) ([5]; H2O-MeOH (Water/MeOH)): >87 mmol
- Solubility (mg/ml) ([5]; H2O-acetone (Water/acetone)): >33.3 mg/mL
- Solubility (mmol) ([5]; H2O-acetone (Water/acetone)): >84 mmol
- Solubility (mmol) ([5]; Heptane): 1 mmol
- Solubility (mg/ml) ([5]; IPA): 29.2 mg/mL (≈ 73.8 mM)
- Solubility (mmol) ([5]; IPA): 74 mmol
- Solubility (mmol) ([5]; MTBE): 17 mmol
- solubility ([5]; MTBE, organic solvent or mixture): 6.7 mg/mL (≈ 16.9 mM)
- Solubility (mg/ml) ([5]; MeCN): 47.8 mg/mL (≈ 121 mM)
- Solubility (mmol) ([5]; MeCN): 121 mmol
- Solubility (mmol) ([5]; MeOH): >181 mmol
- Solubility (mmol) ([5]; Methoxy ethanol): >188 mmol
- Solubility (mmol) ([5]; Nitromethane): >189 mmol
- Solubility (mmol) ([5]; THF): >147 mmol
- solubility ([5]; THF, organic solvent or mixture): > 58 mg/mL
- Solubility (mg/ml) ([5]; Toluene): 52.2 mg/mL (≈ 132 mM)
- Solubility (mmol) ([5]; Toluene): 132 mmol
- solubility ([5]; chloroform, organic solvent or mixture): > 57.5 mg/mL
- solubility ([5]; dioxane, organic solvent or mixture): > 46.3 mg/mL
- solubility ([5]; ethanol (EtOH), organic solvent or mixture, EtOH): 63.4 mg/mL (≈ 160 mM)
- solubility ([5]; glyme (1,2-dimethoxyethane), organic solvent or mixture): > 63 mg/mL
- solubility ([5]; heptane, organic solvent or mixture): 0.6 mg/mL (≈ 1.52 mM)
- solubility ([5]; methanol (MeOH), organic solvent or mixture, MeOH): > 71.4 mg/mL
- solubility ([5]; methoxy ethanol, organic solvent or mixture): > 74.5 mg/mL
- solubility ([5]; nitromethane, organic solvent or mixture): > 74.9 mg/mL
- solubility ([5]; water, H2O (Water)): 35.3 mg/mL (≈ 89.3 mM)
- solubility ([5]; water/EtOH, aqueous with cosolvent or surfactant or cyclodextrin, H2O-EtOH (Water/EtOH)): > 29.8 mg/mL
- solubility ([5]; water/MeOH, aqueous with cosolvent or surfactant or cyclodextrin, H2O-MeOH (Water/MeOH)): > 34.2 mg/mL
- solubility ([6]; Acetone): 125 mmol
- solubility ([6]; EtOAc): 113 mmol
- solubility ([6]; EtOH): 160 mmol
- solubility ([6]; H2O): 89 mmol
- solubility ([6]; Heptane): 1 mmol
- solubility ([6]; IPA): 74 mmol
- solubility ([6]; MTBE): 17 mmol
- solubility ([6]; MeCN): 121 mmol
- solubility ([6]; Toluene): 132 mmol
- solubility ([6]; ethanol (EtOH), organic solvent or mixture, thermodynamic from solid, EtOH, read-out: Solubility): 63.4 mg/mL (≈ 160 mM)
- solubility ([6]; ethyl acetate (EtOAc), organic solvent or mixture, thermodynamic from solid, EtOAc, read-out: Solubility): 44.7 mg/mL (≈ 113 mM)
- solubility ([6]; organic solvent or mixture, thermodynamic from solid, Acetone, read-out: Solubility): 49.4 mg/mL (≈ 125 mM)
- solubility ([6]; organic solvent or mixture, thermodynamic from solid, Heptane, read-out: Solubility): 0.6 mg/mL (≈ 1.52 mM)
- solubility ([6]; organic solvent or mixture, thermodynamic from solid, IPA, read-out: Solubility): 29.2 mg/mL (≈ 73.8 mM)
- solubility ([6]; organic solvent or mixture, thermodynamic from solid, MTBE, read-out: Solubility): 6.7 mg/mL (≈ 16.9 mM)
- solubility ([6]; organic solvent or mixture, thermodynamic from solid, MeCN, read-out: Solubility): 47.8 mg/mL (≈ 121 mM)
- solubility ([6]; organic solvent or mixture, thermodynamic from solid, Toluene, read-out: Solubility): 52.2 mg/mL (≈ 132 mM)
- solubility ([6]; water, thermodynamic from solid, H2O, read-out: Solubility): 35.3 mg/mL (≈ 89.3 mM)
- Particle size D[4, 3] ([7]; after milling): 49.5 μm
- Particle size D[4, 3] ([7]; unmilled material): 195 μm
- Stability on storage ([8]; milled, 70° C./75% RH, 1 week): no change in stability
- Time through which chemically and physically stable ([8]; 40° C./75% RH accelerated conditions): ≥ 6 months
- Time through which chemically and physically stable ([8]; room temperature conditions (63 months @ 15-30° C. and 21 months at 25° C./60% RH)): ≥ 84 months
- Change in crystallinity (XRPD) [9, 10]: no sign of a decrease in crystallinity
- Form change (XRPD) [9, 10]: no sign of form change
- Impact of milling upon polymorphic form ([9]; milled to reduce particle size): No impact upon polymorphic form
Structure (SMILES): C[C@@H]1CN(Cc2ncccn2)C[C@H]1c1nc2c(cnn2C2CCOCC2)c(=O)[nH]1 [Solid Form A, 6-((3S,4S)-4-methyl-1-(pyrimidin-2-ylmethyl)pyrrolidin-3-yl)-1-(tetrahydro-2H-pyran-4-yl)-1,5-dihydro-4H-pyrazolo[3,4-d]pyrimidin-4-one]
- Temperature until which no significant degradation is seen (TGA) [2]: degradation until approximately 240 °C See FIG. 3.
